Columns and labels:
Format in all cases: cell-based
HER2 YVMA = biological target: T1, HER2 YVMA (Homo sapiens, UniProt P04626, INS775YVMA); experiment: pHER2 (ERBB2) YVMA assay: phosphorylation of HER2 YVMA at Tyr1221/1222 in HEK cells (AlphaScreen Surefire); settings: doxycycline induced, 4 h with compound
T1 construct: expressed in transfected cells; host or cells: human HEK cells, retroviral transduction, doxycycline-inducible expression
Method: For the assay, HEK HER2 YVMA cells are seeded in MEM medium with 10% FBS. 4 hours prior to compound addition, HER2 YVMA expression is induced using 1 μg/mL Doxycycline. […] Subsequently, 60.000 cells/well in 60 μL are added. Cells are incubated with compound for 4 h at 37° C. […] The mixture is incubated at a temperature of 20-25° C. with shaking (700 rpm) for 20 min. After centrifugation, 4 μL of the lysate are transferred to Proxiplates. […] Plates are shaken for 1 min (1400 rpm) and incubated for 2 h at a temperature of 20-25° C. in the dark. […] Plates are shaken for 1 min (1400 rpm) and incubated for 2 h at a temperature of 20-25° C. in the dark. Plates are subsequently analyzed using an Envision reader platform. […] IC50 values are computed from these values in the MEGASTAR IC50 application using a 4 parametric logistic model. […] The results of the assay are provided as IC50 values.

[1] = system: Ba/F3 cells HER2 mutants (YVMA); experiment: Ba/F3 proliferation assay, HER2 YVMA, CellTiter-Glo; settings: Mus musculus, BaF3, 72 h
Method: (§1) Ba/F3 Cell Model Generation and Proliferation Assays
(§2) Plasmids containing HER2 mutants and EGFR WT were obtained from GeneScript. To generate EGFR/HER2-dependent Ba/F3 models, Ba/F3 cells are transduced with retroviruses containing vectors that harbor EGFR WT, HER2 WT or HER2 mutants (YVMA). Platinum-E cells (Cell Biolabs) are used for retrovirus packaging. Retrovirus is added to Ba/F3 cells. To ensure infection, 4 μg/mL polybrene is added and cells are spin-infected. Infection efficiency is confirmed by measuring GFP-positive cells using a cell analyzer. Cells with an infection efficiency of 10% to 20% are further cultivated and puromycin selection with 1 μg/mL is initiated. As a control, parental Ba/F3 cells are used to assess the selection status. Selection is considered successful when parental Ba/F3 cells cultures die. To evaluate the transforming potential of HER2 mutations, the growth medium is no longer supplemented with IL-3. Ba/F3 cells harboring the empty vector are used as a control. A switch from IL-3 to EGF is performed for Ba/F3 cells expressing EGFR WT known for its dependency on EGF ligand. Approximately ten days before conducting the experiments, puromycin is left out. For proliferation assays (data in tables 10 and 12), Ba/F3 cells are seeded into 96-well plates at 5×10^3 cells/100 μL in growth media. Compounds are added by using a HP D3000 Digital Dispenser. All treatments are performed in technical triplicates. Treated cells are incubated for 72 h at 37° C. with 5% CO2. A CellTiter-Glo® Luminescent Cell Viability Assay (Promega) is performed and chemoluminescence is measured by using the multilabel Plate Reader VICTOR X4. The raw data are imported into and analyzed with the Boehringer Ingelheim proprietary software MegaLab (curve fitting based on the program PRISM, GraphPad Inc.).

[2] = system: NCI-H2170 (HER2 wild type) cells; experiment: Tumor cell line proliferation assay, NCI-H2170 (HER2 wild type), CellTiter-Glo; settings: Homo sapiens, 72 h, read-out: GI50 NCI H-2170 HER2 wt amp.
Method: (§3) For proliferation assays, NCI-H2170 (HER2 wild type), NCI-H2170 HER2 YVMA and EGFR WT dependent A431 cells are used. NCI-H2170 HER2 YVMA or NCI-H2170 cells are seeded into 96-well plates at 750 cells/60 μL in growth media (RPMI ATCC+10% FCS, +Penicillin/Streptomycin). […] Compounds are added by using a HP D3000 Digital Dispenser one day after plating the cells. All treatments are performed in technical triplicates. Treated cells are incubated for 72 h at 37° C. with 5% CO2. CellTiter-Glo® Luminescent Cell Viability Assay (Promega) is performed and chemoluminescence is measured by using the multilabel Plate Reader VICTOR X4. The raw data are imported into and analyzed with the Boehringer Ingelheim proprietary software MegaLab (curve fitting based on the program PRISM, GraphPad Inc.).

[3] = system: NCI-H2170 HER2 YVMA cells; experiment: Tumor cell line proliferation assay, NCI-H2170 HER2 YVMA, CellTiter-Glo; settings: Homo sapiens, 72 h, read-out: GI50 NCI H-2170 HER2 YVMA
Excerpt: HER2 YVMA Tumor Cell Line Model Generation and Proliferation Assays
Homology-directed genome engineering is employed to insert a 12 nucleotide sequence encoding YVMA into Exon 20 of the genomic HER2 locus in NCI-H2170 cells. […] The DNA template containing the HER2 exon 20 YVMA insertion variant was obtained from GenScript. PCR followed by Sanger sequencing is used to confirm the presence of the 12-nucleotide insertion in HER2 Exon 20 resulting in the YVMA amino acid duplication.
as §3

EGFR wild type (WT) = biological target: T2, EGFR wild type (WT) (Homo sapiens, UniProt P00533); experiment: pEGFR assay: phosphorylation of EGFR at Tyr1068 in HEK cells expressing EGFR WT (AlphaScreen Surefire); settings: 4 h with compound
T2 construct: expressed in transfected cells; host or cells: human HEK cells (ATCC CRL-1573), retroviral transduction
Method: This assay quantifies the phosphorylation of EGFR at Tyr1068 and is used to measure the inhibitory effect of compounds on the transgenic EGFR wild type (WT) protein expressed in HEK cells.
Transduced cells are selected using puromycin. p-EGFR Tyr1068 is determined using the AlphaScreen Surefire pEGF Receptor (Tyr1068) Assay (PerkinElmer, TGRERS). For the assay, HEK EGFR WT cells are seeded in MEM medium with 10% FBS. […] Subsequently, 60.000 cells/well in 60 μL are added. Cells are incubated with compound for 4 h at 37° C. […] The mixture is incubated at a temperature of 20-25° C. with shaking (700 rpm) for 20 min. After centrifugation, 4 μL of the lysate are transferred to Proxiplates. […] Plates are shaken for 1 min (1400 rpm) and incubated for 2 h at a temperature of (20-25° C.) in the dark. […] Plates are shaken for 1 min (1400 rpm) and incubated for 2 h at a temperature of (20-25° C.) in the dark. Plates are subsequently analyzed using an Envision reader platform. […] IC50 values are computed from these values in the MEGASTAR IC50 application using a 4 parametric logistic model.
This cellular phospho-EGFR (pEGFR) compound dose-response assay quantifies the phosphorylation of EGFR at Tyr1068 in HEK cells expressing EGFR WT. The results of the assay are provided as IC50 values.

Ba/F3 cells HER2 WT = experiment: Ba/F3 proliferation assay, HER2 WT, CellTiter-Glo; settings: Mus musculus, BaF3, 72 h
Method: as §1, §2

[4] = system: Ba/F3 cells expressing EGFR WT; experiment: Ba/F3 proliferation assay, EGFR WT (EGF dependent), CellTiter-Glo; settings: Mus musculus, BaF3, EGF instead of IL-3, 72 h, read-out: GI50 BAF3 EGF dep.
Method: as §1, §2

[5] = system: EGFR WT dependent A431 cells; experiment: Tumor cell line proliferation assay, EGFR WT dependent A431 cells, CellTiter-Glo; settings: Homo sapiens, A-431, 72 h, read-out: GI50 A431 EGFR wt amp.
Method: as §3

T1 sequence (P04626 with tags, fused parts or gaps INS775YVMA): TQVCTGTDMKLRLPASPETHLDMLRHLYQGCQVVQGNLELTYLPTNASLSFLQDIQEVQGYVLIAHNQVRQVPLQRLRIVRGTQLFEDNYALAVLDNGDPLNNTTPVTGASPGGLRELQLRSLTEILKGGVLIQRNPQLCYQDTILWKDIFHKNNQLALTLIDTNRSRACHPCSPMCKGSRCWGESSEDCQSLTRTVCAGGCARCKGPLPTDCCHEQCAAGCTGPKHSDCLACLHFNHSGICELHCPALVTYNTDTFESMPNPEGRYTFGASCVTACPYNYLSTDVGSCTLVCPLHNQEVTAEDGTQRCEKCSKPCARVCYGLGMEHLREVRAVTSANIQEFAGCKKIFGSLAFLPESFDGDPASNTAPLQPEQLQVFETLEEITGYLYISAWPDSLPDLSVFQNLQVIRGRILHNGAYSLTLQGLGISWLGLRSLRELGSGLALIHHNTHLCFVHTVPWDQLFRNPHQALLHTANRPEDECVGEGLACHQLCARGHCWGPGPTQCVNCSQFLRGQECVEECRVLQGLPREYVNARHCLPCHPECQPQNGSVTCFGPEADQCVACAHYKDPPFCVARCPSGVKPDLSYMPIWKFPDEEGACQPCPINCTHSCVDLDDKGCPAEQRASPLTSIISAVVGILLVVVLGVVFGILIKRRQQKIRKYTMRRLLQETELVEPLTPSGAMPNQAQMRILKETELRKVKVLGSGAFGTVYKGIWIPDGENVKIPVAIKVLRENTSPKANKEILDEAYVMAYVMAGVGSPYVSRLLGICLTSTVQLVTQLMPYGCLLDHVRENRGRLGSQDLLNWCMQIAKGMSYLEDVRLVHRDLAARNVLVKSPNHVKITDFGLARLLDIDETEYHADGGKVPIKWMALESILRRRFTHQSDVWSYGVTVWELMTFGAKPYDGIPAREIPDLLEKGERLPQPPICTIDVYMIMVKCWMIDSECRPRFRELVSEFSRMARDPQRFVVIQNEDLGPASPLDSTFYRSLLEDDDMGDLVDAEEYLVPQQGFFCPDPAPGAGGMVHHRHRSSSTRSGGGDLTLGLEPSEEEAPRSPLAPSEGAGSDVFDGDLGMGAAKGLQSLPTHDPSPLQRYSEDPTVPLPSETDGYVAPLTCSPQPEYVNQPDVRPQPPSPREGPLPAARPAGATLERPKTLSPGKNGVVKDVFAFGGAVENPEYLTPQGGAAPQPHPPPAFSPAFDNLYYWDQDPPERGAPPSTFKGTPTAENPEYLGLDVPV
T2 sequence (P00533 25-1210): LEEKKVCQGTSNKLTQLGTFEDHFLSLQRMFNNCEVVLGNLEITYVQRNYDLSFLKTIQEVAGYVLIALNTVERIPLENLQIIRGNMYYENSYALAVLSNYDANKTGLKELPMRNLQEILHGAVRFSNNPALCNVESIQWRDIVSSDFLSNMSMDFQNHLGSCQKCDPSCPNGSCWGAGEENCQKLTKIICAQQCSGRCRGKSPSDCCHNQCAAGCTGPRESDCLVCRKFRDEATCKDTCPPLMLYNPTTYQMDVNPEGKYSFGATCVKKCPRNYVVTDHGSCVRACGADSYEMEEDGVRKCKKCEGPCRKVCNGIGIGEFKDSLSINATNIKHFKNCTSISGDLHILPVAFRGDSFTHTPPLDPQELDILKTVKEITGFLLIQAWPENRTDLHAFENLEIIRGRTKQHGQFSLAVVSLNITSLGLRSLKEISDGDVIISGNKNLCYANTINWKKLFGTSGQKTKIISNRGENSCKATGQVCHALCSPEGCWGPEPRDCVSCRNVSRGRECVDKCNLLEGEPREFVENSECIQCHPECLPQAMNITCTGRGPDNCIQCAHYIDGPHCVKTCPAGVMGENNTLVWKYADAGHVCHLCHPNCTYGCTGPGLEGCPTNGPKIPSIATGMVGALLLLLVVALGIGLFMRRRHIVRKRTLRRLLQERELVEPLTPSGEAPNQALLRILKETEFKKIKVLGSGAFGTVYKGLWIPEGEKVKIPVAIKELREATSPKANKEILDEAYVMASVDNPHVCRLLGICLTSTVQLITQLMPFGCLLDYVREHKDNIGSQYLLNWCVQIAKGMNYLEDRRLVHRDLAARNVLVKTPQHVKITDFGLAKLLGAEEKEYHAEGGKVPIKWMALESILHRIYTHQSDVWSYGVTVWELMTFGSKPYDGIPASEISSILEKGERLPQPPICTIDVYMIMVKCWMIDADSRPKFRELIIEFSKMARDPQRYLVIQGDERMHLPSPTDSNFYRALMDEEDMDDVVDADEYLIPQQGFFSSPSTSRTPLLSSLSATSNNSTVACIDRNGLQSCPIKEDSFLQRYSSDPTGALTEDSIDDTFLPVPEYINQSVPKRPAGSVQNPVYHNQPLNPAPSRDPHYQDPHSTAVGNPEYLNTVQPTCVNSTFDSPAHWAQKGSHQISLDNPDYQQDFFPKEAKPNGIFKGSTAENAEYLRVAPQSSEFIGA

Row | Structure (SMILES) | IC50 (HER2 YVMA) [nM] | GI50 [1] [nM] | GI50 [2] [nM] | GI50 [3] [nM] | IC50 (EGFR wild type (WT)) [nM] | GI50 (Ba/F3 cells HER2 WT) [nM] | GI50 [4] [nM] | GI50 [5] [nM]
1 | C=CC(=O)NC1CCN(c2ncc3ncnc(Nc4ccc(Oc5ccc6c(c5)ncn6C)c(OC)c4)c3n2)CC1 [Example I-03] | 20 | 38 | 11 | 139 | 916 | 2 | > 5000 | > 5000
2 | C=CC(=O)N1CCC(Nc2ncc3ncnc(Nc4ccc(Oc5ccn6ncnc6c5)c(C)c4)c3n2)CC1 [Example I-16] | 5 | 10 | 4 | 19 | 23 | 1 | 375 | 660
3 | C=CC(=O)NC1CCN(c2ncc3ncnc(Nc4ccc(Oc5ccc6c(c5)ncn6C)c(Cl)c4)c3n2)CC1 [Example I-05] | 10 | 21 | 8 | 55 | 315 | 1 | 1880 | > 5000
4 | C=CC(=O)N1CC(Nc2ncc3ncnc(Nc4ccc(Oc5ccn6ncnc6c5)c(C)c4)c3n2)C1 [Example I-19] | 8 | 11 | 8 | 34 | 41 | 2 | 206 | 752
5 | C=CC(=O)NC1CN(c2ncc3ncnc(Nc4ccc(Oc5ccc6c(c5)ncn6C)c(Cl)c4)c3n2)C1 [Example I-08] | 58 | 36 | 8 | 44 | 336 | 2 | 2300 | 1500
6 | C=CC(=O)NC1CCN(c2ncc3ncnc(Nc4ccc(Oc5ccc6c(c5)ncn6C)c(C)c4)c3n2)CC1 [Example I-01] | 13 | 16 | 6 | 33 |  | 1 | 1540 | > 5000
7 | C=CC(=O)NC1CN(c2ncc3ncnc(Nc4ccc(Oc5ccc6c(c5)ncn6C)c(C)c4)c3n2)C1 [Example I-07] | 20 | 42 | 17 | 73 | 1170 | 3 | 1500 | > 5000
8 | C=CC(=O)N1CC[C@H](Nc2ncc3ncnc(Nc4ccc(Oc5ccn6ncnc6c5)c(C)c4)c3n2)C1 [Example I-17] | 2 | 14 | 9 | 39 | 94 | 2 | 1100 | > 2000
9 | C#Cc1cc(Nc2ncnc3cnc(N4CC(NC(=O)C=C)C4)nc23)ccc1Oc1ccn2ncnc2c1 [Example I-10] | 24 | 35 | 12 | 126 | 217 | 3 | 1650 | 1460
10 | C=CC(=O)Nc1cccc(-n2c(=O)c(Oc3ccc(F)cc3F)cc3cnc(Nc4cnn(C)c4)nc32)c1 [WO 2019/046775 Comp. 2, reference compound] | 11 | 14 | 22 | 34 | 7 | 3 | 13 | 16
11 | C=CC(=O)Nc1ccc2ncnc(Nc3ccc(OCc4cccc(F)c4)c(Cl)c3)c2c1 [Allitinib, reference compound] | 3 | 17 | 36 | 203 | 1 |  | 31 | 403
12 | C=CC(=O)N1CCC(Oc2cc3c(Nc4ccc(Cl)c(Cl)c4F)ncnc3cc2OC)CC1 [Poziotinib, reference compound] | 5 | 2 | 1 | 5 |  | 1 | 1 | 1
13 | C=CC(=O)NC1CN(c2ncc3ncnc(Nc4ccc(Oc5ccn6ncnc6c5)c(C)c4)c3n2)C1 [Example I-09] | 26 | 29 | 9 | 75 | 715 | 1 | 2240 | > 5000
14 | CCOc1cc2ncc(C#N)c(Nc3ccc(OCc4ccccn4)c(Cl)c3)c2cc1NC(=O)/C=C/CN(C)C [Neratinib, reference compound] |  | 5 | 3 | 37 |  |  | 14 | 55
15 | C=CC(=O)N1CC[C@@H](Nc2ncc3ncnc(Nc4ccc(Oc5ccn6ncnc6c5)c(C)c4)c3n2)C1 [Example I-18] | 4 | 29 | 10 | 87 | 137 |  | 3270 | > 2000
16 | C=CC(=O)Nc1ccc2ncnc(Nc3ccc(Oc4ccc5c(c4)ncn5C)c(C)c3)c2c1 [WO 2007/059257 Ex. 185, reference compound] | 33 | 60 | 108 | 926 | 317 |  | 1190 | > 5000
17 | C=CC(=O)N1CCC[C@@H](n2nc(-c3ccc(Oc4ccccc4)cc3)c3c(N)ncnc32)C1 [Ibrutinib, reference compound] |  | 44 | 16 | 132 |  |  | 70 | 199

From US11608343B2, “Substituted pyrimido[5,4-d]pyrimidines as HER2 inhibitors” (Boehringer Ingelheim International GmbH, priority 2020, dated 2023)
